Experimental data published in patent US20260041660A1 (priority 2020, published 2026).

How the values were obtained:
[1] = tested on: SARS-COV-2; conditions: recent in vitro studies; cited from earlier work
[2] = tested on: IL-6; conditions: in vitro and in vivo; Stat3, Akt, ERK1/2 pathways; cited from earlier work
[3] = tested on: murine peritoneal macrophages; conditions: via suppression of ERK1/2 signaling; cited from earlier work
[4] = polar organic solvents and water; cited from earlier work
[5] = format: in vivo, C57Bl/6 mouse
[6] = tested on: MAPK; assay: Inventors' studies: TPA effect on MAPK hyper-stimulation; format: cell-based; conditions: reduced MAPK activation and phosphorylation activity
Text: (§1) More complex effects of TPA on MAPK pathways involve TPA regulation of immune cell differentiation and apoptosis.

[7] = tested on: peripheral blood lymphocytes (predominantly T-cells); assay: Pilot studies: effect of TPA on peripheral blood lymphocytes; format: cell-based
Text: In addition to minimizing hyper-inflammatory activities of macrophages and neutrophils, TPA compositions and methods of the invention mediate protection of lymphocytes (prolongation of lifespan), and also directly stimulate lymphocyte proliferation and differentiation. […] This activity will protect and expand lymphocyte numbers, which in turn will mediate potent anti-viral effects.
(§2) The instant disclosure, in conjunction with ongoing pilot studies by the inventors, illustrates a wide range of pro-immune and anti-inflammatory effects of TPA that will potently mediate reduction and/or prevention of ARDS conditions and symptoms, as well as other pathogenic conditions and symptoms associated with severe COVID-19 disease. […] Exemplary pilot studies have shown that TPA compounds will effectively treat and prevent lymphocytopenia, by virtue that these compounds promote full range of pro-immune effects relating to activation, proliferation and survival of lymphocytes. […] Neutrophils are evidently “hijacked” and reprogrammed by SARS-COV-2 proteins (and other emergent pro-inflammatory factors that emerge in the course of COVID-19 disease development), leading to profound dysregulation of neutrophil immune and inflammatory activities. […]

[8] = tested on: MAPK and JAK; assay: TPA pro-apoptotic effects via immune-regulatory kinases; format: cell-based; conditions: through interactions with MAPK and JAK
Text: as §2

[9] = tested on: PKC; assay: Inventors' studies: TPA effect on PKC; format: biochemical
Text: as §1

[10] = tested on: HIN1; conditions: reducing infiltration of inflammatory cells, inhibiting pro-inflammatory cytokines; cited from earlier work
[11] = tested on: COVID-19; conditions: human, in vivo; cited from earlier work
[12] = tested on: SARS-COV-2; conditions: after 48 h of infection with SARS-COV-2; cited from earlier work

## CCN(CCO)CCCC(C)Nc1ccnc2cc(Cl)ccc12 (stereo not shown) [hydroxychloroquine]
[1]
  viral load/titer of SARS-COV-2: effectively reduces viral load/titer of SARS-COV-2

## C=C1CC[C@@H]2[C@](C)(CO)[C@H](O)CC[C@@]2(C)[C@@H]1C/C=C1/C(=O)OC[C@H]1O [Andrographolide]
[2]
  IL-6 production and IL-6 hyper-inflammatory signaling: inhibits IL-6 production and suppresses IL-6 hyper-inflammatory signaling in a dose-dependent manner
[3]
  production of TNF-α and interleukin-12: inhibits the production of TNF-α and interleukin-12

## CC1=C[C@H]2[C@@]3(O)[C@H](C)[C@@H](O)[C@]4(O)[C@H]([C@@H]3C=C(CO)C[C@]2(O)C1=O)C4(C)C [Phorbol]
[4]
  solubility: well soluble in most polar organic solvents and in water

## CCCCCCCCCCCCCC(=O)O[C@@H]1[C@H](C)[C@@]2(O)[C@@H](C=C(CO)C[C@]3(O)C(=O)C(C)=C[C@@H]23)[C@@H]2C(C)(C)[C@]12OC(C)=O (stereo in doubt) [TPA, 12-O-tetradecanoylphorbol-13-acetate]
[5]; 48 hrs
  TNFα content in BALF samples: reduction of TNFα content
  protein extravasation in BALF samples: reduction of protein extravasation in BALF samples
[5]; after 48 hours
  ROS generation of lavaged neutrophils: significant reduction in ROS generation
[5]; mouse, in vivo
  BALF WBC ROS production: significantly lower
  LPS-induced EBD extravasation: suppression of LPS-induced EBD extravasation
  hyper-elevation of IL-6, IL-10, TNFα, MIP2 and other pro-inflammatory cytokines: block or reduce hyper-elevation
  monocyte/macrophage and neutrophil counts: reduction in monocyte/macrophage and neutrophil counts
  neutrophil and RBC into pulmonary interstitial spaces and alveolar airspaces: marked reduction in neutrophil and RBC
  presence of neutrophils in BALF: significantly reduced
  swelling of the alveolar walls: reduced swelling of the alveolar walls
[5]; mouse, in vivo, iv
  histopathologic changes of the lung: markedly suppressed
[6]
  MAPK hyper-stimulation: clinically beneficial reduction in MAPK hyper-stimulation
[7]
  mitogenic effect on peripheral blood lymphocytes: direct, clinically effective mitogenic effect
[8]
  apoptotic effects: pro-apoptotic effects
[9]
  effect on PKC: not only activates, but stabilizes PKC

## O=C1CCC(N2C(=O)c3ccccc3C2=O)C(=O)N1 (stereo not shown) [Thalidomide]
[10]
  treatment of infected mice: effective in treating HIN1-infected mice

## TCZ: recombinant human anti-IL-6 monoclonal antibody that binds soluble and membrane-bound IL-6 receptors
[11]
  fever and other ARDS symptoms: reduces fever and other ARDS symptoms
  patients with opacity lung lesion on CT scans absorbed: 90.5%
  patients with peripheral lymphocyte levels returned to normal: 52.6%
  treated subjects showing improved oxygenation: 75.0%

## Ivermectin
[12]
  reduce viral RNA: up to 5,000 fold
